Patent US20220257595A1, “MACITENTAN FOR USE IN TREATING PORTOPULMONARY HYPERTENSION” (ACTELION PHARMACEUTICALS LTD, priority 2019, published 2022)
Several values for one entry are separate records, joined by “and”; a condition that tells them apart may be missing. Equal values may be shown once.

System: patients with PoPH
Assay: PORTICO safety: treatment-emergent AEs, SAEs, AESIs, deaths, discontinuations
Format: in vivo
Source text: For the evaluation of treatment-emergent safety endpoints in the DB phase, the observation period for each individual subject started at the time of the first administration of macitentan or placebo and ended with the start of OL treatment or 30 days after DB treatment discontinuation (whichever occurred first). The safety variables listed below apply to the DB treatment-emergent period and the macitentan treatment-emergent period. The DB treatment-emergent period was defined as the period from the DB treatment start date up to the EOT-DB+30 days or to the EOT-DB for patients entering OL. The macitentan treatment-emergent period was defined as the period from the first intake of macitentan up to end of macitentan treatment (EOMT)+30 days. EOMT was defined as EOT-DB (for patient who received macitentan only in the DB period) or EOT-OL when applicable. For patients entering OLE, the EOMT is EOT-OL. • Treatment-emergent AEs • Treatment-emergent deaths • Treatment-emergent serious adverse events (SAEs) • AEs leading to premature discontinuation of study treatment • Occurrence of post-baseline LFT (ALT and/or AST) abnormalities, classified as: • ≥3×ULN; • ≥5×ULN; • ≥8×ULN; • ≥3×ULN and <5×ULN; • […] and <8×ULN. • Occurrence of post-baseline ALT and/or AST abnormality 3×ULN and concomitant (i.e., at the same time) total bilirubin ≥2×ULN • Occurrence of post-baseline ALT and/or AST abnormality ≥3×ULN and concomitant (i.e., at the same time) total bilirubin ≥2×ULN and increased as compared to baseline • Occurrence of hemoglobin abnormalities, classified as: • ≤80 g/L, • >80 and ≤100 g/L, • decrease from baseline ≥20 g/L and <50 g/L, • decrease from baseline ≥50 g/L, • <100 g/L and concurrent (i.e., at the same time) decrease from baseline ≥20 g/L. • Other treatment-emergent marked laboratory abnormalities • Change from baseline/macitentan baseline to EOT-DB/EOMT in vital signs • Change from baseline/macitentan baseline to EOT-DB/EOMT in laboratory variables • Change from baseline/macitentan baseline to EOT-DB/EOMT in Child-Pugh classification • Change from baseline/macitentan baseline to EOT-DB/EOMT in MELD score
(i) Adverse events: All AEs occurring after study start (i.e., signing of informed consent) and up to 30 days after study treatment discontinuation were required to be recorded. AEs still ongoing more than 30 days after study treatment discontinuation were required to be followed up until they were no longer considered clinically relevant.
(ii) Serious adverse events, including associated with study design or protocol-mandated procedures: During the screening period, all SAEs occurring after study start (i.e., signing of informed consent) were required to be recorded (whether considered associated or not associated to study design or study-mandated procedures). All SAEs, regardless of investigator-attributed causal relationship, occurring during the treatment period up to the end of the 30-day follow up period, were required to be reported. SAEs still ongoing at the EOS visit were required to be followed up until resolution or stabilization, or until the event outcome was provided, e.g., death. New SAEs occurring after the 30-day follow-up period were required to be reported within 24 hours.
In addition, the following adverse events of special interest (AESIs) were analyzed: • “Edema and fluid retention”
Any treatment-emergent AE with PT listed in the Standardised MedDRA Query (SMQ) “Haemodynamic oedema, effusions and fluid overload (SMQ)” or with PT equal to “Pulmonary congestion” defined in the latest available MedDRA version, with the exception of PTs containing “site”. • “Anemia”

[1] = macitentan DB + OL phase, Macitentan treated set, N = 84
[2] = macitentan DB+OL phase, MTS N=84

With `CCCNS(=O)(=O)Nc1ncnc(OCCOc2ncc(Br)cn2)c1-c1ccc(Br)cc1` [macitentan, N-[5-(4-Bromophenyl)-6-[2-[(5-bromo-2-pyrimidinyl)oxy]ethoxy]-4-pyrimidinyl]-N′-propylsulfamide] the “AEs of special interest Hepatic disorders, Blood bilirubin increased” value [1] was 1 (1.2) n (%), the “AEs of special interest Hepatic disorders, Hepatocellular carcinoma” value [1] was 1 (1.2) n (%) and the “AEs of special interest Hepatic disorders, Jaundice” value [1] was 1 (1.2) n (%). For the same compound, the “AEs of special interest Hepatic disorders, Liver function test abnormal” value [1] was 1 (1.2) n (%), the “AEs of special interest Hepatic disorders, Liver function test increased” value [1] was 1 (1.2) n (%) and the “AEs of special interest Hepatic disorders, Portal hypertensive gastropathy” value [1] was 1 (1.2) n (%). The “AEs of special interest Hepatic disorders, Portopulmonary hypertension” value [1] was 1 (1.2) n (%), the “AEs of special interest Hepatic disorders, Subjects with atleast one AE” value [1] was 13 (15.5) n (%) and the “AEs of special interest Hepatic disorders, Total bile acids increased” value [1] was 2 (2.4) n (%). The “AEs of special interest Hepatic disorders, Varices oesophageal” value [1] was 1 (1.2) n (%), the “Subjects with at least one AE” value [1] was 74 (88.1) n (%) and the “Subjects with at least one SAE” value [1] was 25 (29.8) n(%). For the same compound, the “Treatment-emergent AE, Abdominal pain” value [1] was 4 (4.8) n (%), the “Treatment-emergent AE, Acute kidney injury” value [1] was 3 (3.6) n (%) and the “Treatment-emergent AE, Anaemia” value [1] was 12 (14.3) n (%). For the same compound, the “Treatment-emergent AE, Arthralgia” value [1] was 3 (3.6) n (%), the “Treatment-emergent AE, Ascites” value [1] was 4 (4.8) n (%) and the “Treatment-emergent AE, Asthenia” value [1] was 4 (4.8) n (%). For the same compound, the “Treatment-emergent AE, Bronchitis” value [1] was 8 (9.5) n (%), the “Treatment-emergent AE, Dizziness” value [1] was 7 (8.3) n (%) and the “Treatment-emergent AE, Dyspnoea” value [1] was 4 (4.8) n (%). The “Treatment-emergent AE, Dyspnoea exertional” value [1] was 3 (3.6) n (%), the “Treatment-emergent AE, Fall” value [1] was 3 (3.6) n (%) and the “Treatment-emergent AE, Haemoglobin decreased” value [1] was 6 (7.1) n (%). The “Treatment-emergent AE, Headache” value [1] was 16 (19.0) n (%), the “Treatment-emergent AE, Hepatic encephalopathy” value [1] was 4 (4.8) n (%) and the “Treatment-emergent AE, Hypokalaemia” value [1] was 3 (3.6) n (%). For the same compound, the “Treatment-emergent AE, Hypotension” value [1] was 4 (4.8) n (%), the “Treatment-emergent AE, Influenza like illness” value [1] was 3 (3.6) n (%) and the “Treatment-emergent AE, Iron deficiency anaemia” value [1] was 3 (3.6) n (%). For the same compound, the “Treatment-emergent AE, Muscle spasms” value [1] was 3 (3.6) n (%), the “Treatment-emergent AE, Nausea” value [1] was 4 (4.8) n (%) and the “Treatment-emergent AE, Oedema peripheral” value [1] was 23 (27.4) n (%). The “Treatment-emergent AE, Pain in extremity” value [1] was 7 (8.3) n (%), the “Treatment-emergent AE, Pruritus” value [1] was 3 (3.6) n (%) and the “Treatment-emergent AE, Pulmonary arterial hypertension” value [1] was 3 (3.6) n (%). For the same compound, the “Treatment-emergent AE, Rash” value [1] was 3 (3.6) n (%), the “Treatment-emergent AE, Rhinitis” value [1] was 5 (6.0) n (%) and the “Treatment-emergent AE, Right ventricular failure” value [1] was 6 (7.1) n (%). For the same compound, the “Treatment-emergent AE, Urinary tract infection” value [1] was 3 (3.6) n (%), the “Treatment-emergent AE, Viral upper respiratory tract infection” value [1] was 4 (4.8) n (%) and the “Treatment-emergent AE, Vomiting” value [1] was 3 (3.6) n (%). The “Treatment-emergent SAE, Abdominal pain” value [1] was 1 (1.2) n(%), the “Treatment-emergent SAE, Acute kidney injury” value [1] was 2 (2.4) n(%) and the “Treatment-emergent SAE, Alveolitis” value [1] was 1 (1.2) n(%). The “Treatment-emergent SAE, Anaemia” value [1] was 2 (2.4) n(%), the “Treatment-emergent SAE, Ascites” value [1] was 2 (2.4) n(%) and the “Treatment-emergent SAE, Asthma” value [1] was 1 (1.2) n(%). The “Treatment-emergent SAE, Atrial fibrillation” value [1] was 1 (1.2) n(%), the “Treatment-emergent SAE, Bronchitis” value [1] was 1 (1.2) n(%) and the “Treatment-emergent SAE, Chronic kidney disease” value [1] was 1 (1.2) n(%). For the same compound, the “Treatment-emergent SAE, Fall” value [1] was 1 (1.2) n(%), the “Treatment-emergent SAE, Fluid overload” value [1] was 1 (1.2) n(%) and the “Treatment-emergent SAE, Gastrointestinal haemorrhage” value [1] was 1 (1.2) n(%). The “Treatment-emergent SAE, Haemoptysis” value [1] was 1 (1.2) n(%), the “Treatment-emergent SAE, Hepatic encephalopathy” value [1] was 3 (3.6) n(%) and the “Treatment-emergent SAE, Hepatocellular carcinoma” value [1] was 1 (1.2) n(%). For the same compound, the “Treatment-emergent SAE, Humerus fracture” value [1] was 1 (1.2) n(%), the “Treatment-emergent SAE, Hypersensitivity” value [1] was 1 (1.2) n(%) and the “Treatment-emergent SAE, Ileus” value [1] was 1 (1.2) n(%). The “Treatment-emergent SAE, Intervertebral disc protrusion” value [1] was 1 (1.2) n(%), the “Treatment-emergent SAE, Iron deficiency anaemia” value [1] was 1 (1.2) n(%) and the “Treatment-emergent SAE, Left ventricular failure” value [1] was 1 (1.2) n(%). For the same compound, the “Treatment-emergent SAE, Liver function test increased” value [1] was 1 (1.2) n(%), the “Treatment-emergent SAE, Localised oedema” value [1] was 1 (1.2) n(%) and the “Treatment-emergent SAE, Lung infection” value [1] was 1 (1.2) n(%). For the same compound, the “Treatment-emergent SAE, Malignant ascites” value [1] was 1 (1.2) n(%), the “Treatment-emergent SAE, Melaena” value [1] was 2 (2.4) n(%) and the “Treatment-emergent SAE, Oedema peripheral” value [1] was 2 (2.4) n(%). The “Treatment-emergent SAE, Osteitis” value [1] was 1 (1.2) n(%), the “Treatment-emergent SAE, Pneumonia” value [1] was 1 (1.2) n(%) and the “Treatment-emergent SAE, Presyncope” value [1] was 1 (1.2) n(%). The “Treatment-emergent SAE, Priapism” value [1] was 1 (1.2) n(%), the “Treatment-emergent SAE, Pulmonary arterial hypertension” value [1] was 2 (2.4) n(%) and the “Treatment-emergent SAE, Pulmonary toxicity” value [1] was 1 (1.2) n(%). The “Treatment-emergent SAE, Right ventricular failure” value [1] was 4 (4.8) n(%), the “Treatment-emergent SAE, Staphylococcal infection” value [1] was 1 (1.2) n(%) and the “Treatment-emergent SAE, Subdural haematoma” value [1] was 1 (1.2) n(%). The “Treatment-emergent SAE, Syncope” value [1] was 1 (1.2) n(%), the “Treatment-emergent SAE, Thrombocytopenia” value [1] was 1 (1.2) n(%) and the “Treatment-emergent SAE, Tinnitus” value [1] was 1 (1.2) n(%). The “Treatment-emergent SAE, Troponin I increased” value [1] was 1 (1.2) n(%), the “Treatment-emergent SAE, Urosepsis” value [1] was 1 (1.2) n(%) and the “Anemia AEs reported as SAEs” value (macitentan DB+OL phase) was 2 and 3. For the same compound, the “Patients who discontinued treatment due to AEs” value (macitentan DB+OL phase) was 10 patients, the “Patients who had an SAE” value (macitentan DB+OL phase) was 29.8% and the “Patients with edema and fluid retention AEs reported as serious” value (macitentan DB+OL phase) was 2 patients. The “Patients with hepatic disorder AEs reported as SAEs” value (macitentan DB+OL phase) was 5 patients, the “Peripheral edema leading to discontinuation of treatment” value (macitentan DB+OL phase) was 2 patients and the “Patients with hepatic disorder AEs” value (macitentan DB+OL phase (13 patients)) was 15.5%. For the same compound, the “Patients with anemia AEs” value (macitentan DB+OL phase (22 patients)) was 26.2%, the “Patients with edema and fluid retention AEs” value (macitentan DB+OL phase (26 patients)) was 31.0% and the “Decreased hemoglobin considered related to study treatment” value (macitentan DB+OL phase, 3 patients) was 3.6%. For the same compound, the “Most frequent severe AEs (peripheral edema, right ventricular failure, acute kidney injury), each” value (macitentan DB+OL phase, 3 patients each) was 3.6%, the “Anemia considered related to study treatment” value (macitentan DB+OL phase, 4 patients) was 4.8% and the “Peripheral edema considered related to study treatment” value (macitentan DB+OL phase, 10 patients) was 11.9%. For the same compound, the “Headache considered related to study treatment” value (macitentan DB+OL phase, 11 patients) was 13.1%, the “Patients with AEs of severe intensity” value (macitentan DB+OL phase, 19 patients) was 22.6% and the “Subjects with AE leading to study drug discontinuation” value [2] was 10 (11.9) n (%). For the same compound, the “Subjects with Drug-Related AE” value [2] was 33 (39.3) n (%), the “Subjects with Drug-Related serious AE” value [2] was 8 (9.5) n (%) and the “Subjects with Fatal serious AE” value [2] was 4 (4.8) n (%). For the same compound, the “Subjects with Serious AE” value [2] was 25 (29.8) n (%), the “Subjects with Severe AE” value [2] was 19 (22.6) n (%) and the “Subjects with at least one AE” value (macitentan DB+OL phase, Macitentan treated set N=84) was 74 (88.1) n (%). For the same compound, the “Overall safety and tolerability” value (patients with PoPH and mild or moderate liver impairment) was “good safety profile and is well tolerated”.
